{"source": "patent US20240150377A1", "about": "“MODULATORS OF CYSTIC FIBROSIS TRANSMEMBRANE CONDUCTANCE REGULATOR” (VERTEX PHARMACEUTICALS INCORPORATED, priority 2020, published 2024)", "key": {"CFTR": {"biological_target": "T1, CFTR (Homo sapiens, UniProt P13569, DEL508-508)", "T1 construct": "endogenous in cells; host or cells: primary human bronchial epithelial cells from CF subjects (F508del/MF-HBE), differentiated at air-liquid interface", "T1 sequence (P13569 with tags, fused parts or gaps DEL508-508)": "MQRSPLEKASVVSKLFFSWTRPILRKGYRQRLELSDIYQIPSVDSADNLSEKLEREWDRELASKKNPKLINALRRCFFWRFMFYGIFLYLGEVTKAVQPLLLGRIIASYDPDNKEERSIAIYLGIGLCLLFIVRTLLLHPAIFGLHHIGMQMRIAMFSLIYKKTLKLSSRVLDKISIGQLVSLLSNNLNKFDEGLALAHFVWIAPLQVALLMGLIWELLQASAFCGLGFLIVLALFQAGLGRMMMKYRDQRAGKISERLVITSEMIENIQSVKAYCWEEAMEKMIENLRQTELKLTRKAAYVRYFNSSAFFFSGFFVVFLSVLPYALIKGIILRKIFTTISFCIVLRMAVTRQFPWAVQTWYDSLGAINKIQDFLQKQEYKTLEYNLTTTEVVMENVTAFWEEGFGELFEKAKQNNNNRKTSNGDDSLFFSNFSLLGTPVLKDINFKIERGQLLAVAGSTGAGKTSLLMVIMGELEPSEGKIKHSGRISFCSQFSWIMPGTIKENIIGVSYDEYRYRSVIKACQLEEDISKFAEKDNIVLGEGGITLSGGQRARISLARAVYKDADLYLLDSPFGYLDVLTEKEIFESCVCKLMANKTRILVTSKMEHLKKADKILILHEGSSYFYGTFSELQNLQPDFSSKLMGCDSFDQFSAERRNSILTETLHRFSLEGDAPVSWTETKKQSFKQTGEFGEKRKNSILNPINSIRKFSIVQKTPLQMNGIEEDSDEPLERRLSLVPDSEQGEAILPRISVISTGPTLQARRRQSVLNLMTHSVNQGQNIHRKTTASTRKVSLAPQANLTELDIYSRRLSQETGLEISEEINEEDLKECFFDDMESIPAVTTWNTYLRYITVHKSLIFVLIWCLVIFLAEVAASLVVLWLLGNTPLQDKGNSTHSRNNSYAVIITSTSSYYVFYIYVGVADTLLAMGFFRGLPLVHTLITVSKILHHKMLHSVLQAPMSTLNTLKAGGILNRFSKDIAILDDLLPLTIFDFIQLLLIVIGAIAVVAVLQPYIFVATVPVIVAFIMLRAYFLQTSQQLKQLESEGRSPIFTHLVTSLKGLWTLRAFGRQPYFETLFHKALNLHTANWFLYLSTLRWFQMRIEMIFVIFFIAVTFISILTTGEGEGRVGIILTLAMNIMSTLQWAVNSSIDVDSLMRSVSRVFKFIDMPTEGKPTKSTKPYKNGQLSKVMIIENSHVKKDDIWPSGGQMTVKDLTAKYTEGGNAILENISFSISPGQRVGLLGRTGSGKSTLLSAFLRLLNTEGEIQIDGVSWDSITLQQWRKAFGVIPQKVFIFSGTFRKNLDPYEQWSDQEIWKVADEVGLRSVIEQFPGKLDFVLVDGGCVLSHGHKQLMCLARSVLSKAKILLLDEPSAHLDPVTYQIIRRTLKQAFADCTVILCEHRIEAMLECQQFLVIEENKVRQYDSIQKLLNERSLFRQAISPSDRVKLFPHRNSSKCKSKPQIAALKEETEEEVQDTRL", "assay": "HBE assay: Ussing chamber assay of CFTR-mediated short-circuit currents", "format": "cell-based", "details": "for EC50: read-out: HBE EC50", "in_short": "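CFTR-mediated Isc (μA/cm²) equals the peak response to apical 20 μM forskolin minus the residual after a 20 μM each BPO/GlyH-101/CFTR inhibitor 172 cocktail, recorded in Ussing chambers at Vhold 0 mV, 37 °C, pH 7.4, with 30 μM apical amiloride. Cells were F508del/MF HBE cultures preincubated 18-24 h with corrector (concentration range or 10 μM) plus 1 μM ivacaftor in 20% human serum.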"}, "[1]": {"details": "amide bond, 13-membered ring, DMF"}, "[2]": {"details": "Table 10, read-out: HBE Max activity (%)"}, "[3]": {"details": "Table 11, read-out: HBE Max Activity (%)"}}, "note": "Like-named read-outs stand apart in the source and are kept apart here."}
{"smiles": "Cc1cccc(C)c1-c1cc2nc(n1)NS(=O)(=O)c1cccc(c1)C(=O)N(Cc1ccc3ccccc3n1)[C@H](CC(C)(C)C)CO2", "note": "[Compound 58, (11R)-6-(2,6-Dimethylphenyl)-11-(2,2-dimethylpropyl)-2,2-dioxo-12-(2-quinolylmethyl)-9-oxa-2λ^6-thia-3,5,12,19-tetrazatricyclo[12.3.1.14,8]nonadeca-1(18),4(19),5,7,14,16-hexaen-13-one]", "values": [{"measurement": "EC50", "setting": "CFTR; Table 10", "result": "< 1000", "unit": "nM"}, {"measurement": "Emax", "setting": "CFTR; [2]", "result": "> 60", "unit": "%"}, {"measurement": "ring closure, yield after HPLC", "setting": "[1]; from 3-[[4-(2,6-dimethylphenyl)-6-[(2R)-4,4-dimethyl-2-(2-quinolylmethylamino)pentoxy]pyrimidin-2-yl]sulfamoyl]benzoic acid (Dihydrochloride salt), HATU/DIEA, 27.5 mM, 25.0 °C", "result": 73, "unit": "%"}]}
{"smiles": "Cc1cccc(C)c1-c1cc2nc(n1)NS(=O)(=O)c1cccc(c1)C(=O)N(Cc1cccn(C)c1=O)[C@H](CC(C)(C)C)CO2", "note": "[Compound 59, (11R)-6-(2,6-Dimethylphenyl)-11-(2,2-dimethylpropyl)-12-[(1-methyl-2-oxo-3-pyridyl)methyl]-2,2-dioxo-9-oxa-2λ^6-thia-3,5,12,19-tetrazatricyclo[12.3.1.14,8]nonadeca-1(18),4(19),5,7,14,16-hexaen-13-one]", "values": [{"measurement": "EC50", "setting": "CFTR; Table 11", "result": "< 1000", "unit": "nM"}, {"measurement": "Emax", "setting": "CFTR; [3]", "result": "> 60", "unit": "%"}, {"measurement": "ring closure, yield after HPLC", "setting": "[1]; from Cc1cccc(C)c1-c1cc(OC[C@@H](CC(C)(C)C)NCc2cccn(C)c2=O)nc(NS(=O)(=O)c2cccc(C(=O)O)c2)n1, HATU/DIEA, 28.1 mM, 25.0 °C, 2.0 h", "result": 54, "unit": "%"}]}
{"smiles": "Cc1cccc(C)c1-c1cc2nc(n1)NS(=O)(=O)c1cccc(c1)C(=O)N(Cc1ccc(N3CCOCC3)nn1)[C@H](CC(C)(C)C)CO2", "note": "[Compound 111, (11R)-6-(2,6-Dimethylphenyl)-11-(2,2-dimethylpropyl)-12-[(6-morpholinopyridazin-3-yl)methyl]-2,2-dioxo-9-oxa-2λ^6-thia-3,5,12,19-tetrazatricyclo[12.3.1.14,8]nonadeca-1(18),4(19),5,7,14,16-hexaen-13-one]", "values": [{"measurement": "EC50", "setting": "CFTR; Table 10", "result": "< 1000", "unit": "nM"}, {"measurement": "Emax", "setting": "CFTR; [2]", "result": "> 60", "unit": "%"}, {"measurement": "ring closure, yield after HPLC", "setting": "[1]; from Cc1cccc(C)c1-c1cc(OC[C@@H](CC(C)(C)C)NCc2ccc(N3CCOCC3)nn2)nc(NS(=O)(=O)c2cccc(C(=O)O)c2)n1, CDMT/NMM, 25.0 °C, 3.0 h, 2 steps", "result": 10, "unit": "%"}]}
{"smiles": "COCCN(C)c1cnc(CN2C(=O)c3cccc(c3)S(=O)(=O)Nc3nc(cc(-c4c(C)cccc4C)n3)OC[C@H]2CC(C)(C)C)nc1", "note": "[Compound 114, (11R)-6-(2,6-Dimethylphenyl)-11-(2,2-dimethylpropyl)-12-[[5-[2-methoxyethyl(methyl)amino]pyrimidin-2-yl]methyl]-2,2-dioxo-9-oxa-2λ^6-thia-3,5,12,19-tetrazatricyclo[12.3.1.14,8]nonadeca-1(18),4(19),5,7,14,16-hexaen-13-one]", "values": [{"measurement": "EC50", "setting": "CFTR; Table 10", "result": "< 1000", "unit": "nM"}, {"measurement": "Emax", "setting": "CFTR; [2]", "result": "> 60", "unit": "%"}, {"measurement": "ring closure, yield after HPLC", "setting": "[1]; from 3-[[4-(2,6-dimethylphenyl)-6-[(2R)-2-[[5-[2-methoxyethyl(methyl)amino]pyrimidin-2-yl]methylamino]-4,4-dimethyl-pentoxy]pyrimidin-2-yl]sulfamoyl]benzoic acid (Dihydrochloride salt), HATU/DIEA, 10.5 mM, 25.0 °C", "result": 53, "unit": "%"}]}
{"smiles": "Cc1cccc(C)c1-c1cc2nc(n1)NS(=O)(=O)c1cccc(c1)C(=O)N(Cc1ncc(N(C)CC(C)(C)C)cn1)[C@H](CC(C)(C)C)CO2", "note": "[Compound 115, (11R)-6-(2,6-Dimethylphenyl)-11-(2,2-dimethylpropyl)-12-[[5-[2,2-dimethylpropyl(methyl)amino]pyrimidin-2-yl]methyl]-2,2-dioxo-9-oxa-2λ^6-thia-3,5,12,19-tetrazatricyclo[12.3.1.14,8]nonadeca-1(18),4(19),5,7,14,16-hexaen-13-one]", "values": [{"measurement": "EC50", "setting": "CFTR; Table 10", "result": "< 1000", "unit": "nM"}, {"measurement": "Emax", "setting": "CFTR; [2]", "result": "> 60", "unit": "%"}, {"measurement": "ring closure, yield after HPLC", "setting": "[1]; from 3-[[4-(2,6-dimethylphenyl)-6-[(2R)-2-[[5-[2,2-dimethylpropyl(methyl)amino]pyrimidin-2-yl]methylamino]-4,4-dimethyl-pentoxy]pyrimidin-2-yl]sulfamoyl]benzoic acid (Dihydrochloride salt), HATU/DIEA, 19.3 mM, 25.0 °C", "result": 50, "unit": "%"}]}
{"smiles": "Cc1cccc(C)c1-c1cc2nc(n1)NS(=O)(=O)c1cccc(c1)C(=O)N(Cc1ncc(NCC(C)(C)C)cn1)[C@H](CC(C)(C)C)CO2", "note": "[Compound 116, (11R)-6-(2,6-Dimethylphenyl)-11-(2,2-dimethylpropyl)-12-[[5-(2,2-dimethylpropylamino)pyrimidin-2-yl]methyl]-2,2-dioxo-9-oxa-2λ^6-thia-3,5,12,19-tetrazatricyclo[12.3.1.14,8]nonadeca-1(18),4(19),5,7,14,16-hexaen-13-one]", "values": [{"measurement": "activation at 10 µM", "setting": "CFTR; Table 11, at 10 μM, read-out: HBE Activity at 10 μM (%)", "result": "> 60", "unit": "%"}, {"measurement": "EC50", "setting": "CFTR; Table 11", "result": "< 1000", "unit": "nM"}, {"measurement": "Emax", "setting": "CFTR; [3]", "result": "> 60", "unit": "%"}, {"measurement": "ring closure, yield after HPLC", "setting": "[1]; from 3-[[4-(2,6-dimethylphenyl)-6-[(2R)-2-[[5-(2,2-dimethylpropylamino)pyrimidin-2-yl]methylamino]-4,4-dimethyl-pentoxy]pyrimidin-2-yl]sulfamoyl]benzoic acid (Dihydrochloride salt), HATU/DIEA, 23.6 mM, 25.0 °C", "result": 15, "unit": "%"}]}
{"smiles": "Cc1cccc(C)c1-c1cc2nc(n1)NS(=O)(=O)c1cccc(c1)C(=O)N(Cc1ncc(OC(C)C)cn1)[C@H](CC(C)(C)C)CO2", "note": "[Compound 118, (11R)-6-(2,6-Dimethylphenyl)-11-(2,2-dimethylpropyl)-12-{[5-(propan-2-yloxy)pyrimidin-2-yl]methyl}-9-oxa-2λ^6-thia-3,5,12,19-tetraazatricyclo[12.3.1.14,8]nonadeca-1(17),4,6,8(19),14(18),15-hexaene-2,2,13-trione]", "values": [{"measurement": "EC50", "setting": "CFTR; Table 11", "result": "< 1000", "unit": "nM"}, {"measurement": "Emax", "setting": "CFTR; [3]", "result": "> 60", "unit": "%"}, {"measurement": "ring closure, yield after HPLC", "setting": "[1]; from Cc1cccc(C)c1-c1cc(OC[C@@H](CC(C)(C)C)NCc2ncc(OC(C)C)cn2)nc(NS(=O)(=O)c2cccc(C(=O)O)c2)n1, CDMT/NMM, 14.3 mM, 13.25 h", "result": 59, "unit": "%"}]}
{"smiles": "Cc1cccc(C)c1-c1cc2nc(n1)NS(=O)(=O)c1cccc(c1)C(=O)N(Cc1ncc(N3CCC(C)(C)C3)cn1)[C@H](CC(C)(C)C)CO2", "note": "[Compound 119, (11R)-6-(2,6-Dimethylphenyl)-11-(2,2-dimethylpropyl)-12-[[5-(3,3-dimethylpyrrolidin-1-yl)pyrimidin-2-yl]methyl]-2,2-dioxo-9-oxa-2λ^6-thia-3,5,12,19-tetrazatricyclo[12.3.1.14,8]nonadeca-1(18),4(19),5,7,14,16-hexaen-13-one]", "values": [{"measurement": "EC50", "setting": "CFTR; Table 11", "result": "1000 to 3000", "unit": "nM"}, {"measurement": "Emax", "setting": "CFTR; [3]", "result": "> 60", "unit": "%"}, {"measurement": "ring closure, yield after HPLC", "setting": "[1]; from 3-[[4-(2,6-dimethylphenyl)-6-[(2R)-2-[[5-(3,3-dimethylpyrrolidin-1-yl)pyrimidin-2-yl]methylamino]-4,4-dimethyl-pentoxy]pyrimidin-2-yl]sulfamoyl]benzoic acid (Dihydrochloride salt), CDMT/NMM, 29.4 mM", "result": 47, "unit": "%"}]}
{"smiles": "Cc1cccc(C)c1-c1cc2nc(n1)NS(=O)(=O)c1cccc(c1)C(=O)N(Cc1nccc(C(F)(F)F)n1)[C@H](CC(C)(C)C)CO2", "note": "[Compound 122, (11R)-6-(2,6-Dimethylphenyl)-11-(2,2-dimethylpropyl)-12-{[4-(trifluoromethyl)pyrimidin-2-yl]methyl}-9-oxa-2λ^6-thia-3,5,12,19-tetraazatricyclo[12.3.1.14,8]nonadeca-1(17),4,6,8(19),14(18),15-hexaene-2,2,13-trione]", "values": [{"measurement": "EC50", "setting": "CFTR; Table 11", "result": "< 1000", "unit": "nM"}, {"measurement": "Emax", "setting": "CFTR; [3]", "result": "> 60", "unit": "%"}, {"measurement": "ring closure, yield after HPLC", "setting": "[1]; from Cc1cccc(C)c1-c1cc(OC[C@@H](CC(C)(C)C)NCc2nccc(C(F)(F)F)n2)nc(NS(=O)(=O)c2cccc(C(=O)O)c2)n1, CDMT/NMM, 27.3 mM", "result": 48, "unit": "%"}]}
{"smiles": "COCc1cccc(CN2C(=O)c3cccc(c3)S(=O)(=O)Nc3nc(cc(-c4c(C)cccc4C)n3)OC[C@H]2CC(C)(C)C)n1", "note": "[Compound 130, (11R)-6-(2,6-Dimethylphenyl)-11-(2,2-dimethylpropyl)-12-[[6-(methoxymethyl)-2-pyridyl]methyl]-2,2-dioxo-9-oxa-2λ^6-thia-3,5,12,19-tetrazatricyclo[12.3.1.14,8]nonadeca-1(18),4(19),5,7,14,16-hexaen-13-one]", "values": [{"measurement": "EC50", "setting": "CFTR; Table 11", "result": "< 1000", "unit": "nM"}, {"measurement": "Emax", "setting": "CFTR; [3]", "result": "> 60", "unit": "%"}, {"measurement": "ring closure, yield after HPLC", "setting": "[1]; from COCc1cccc(CN[C@@H](COc2cc(-c3c(C)cccc3C)nc(NS(=O)(=O)c3cccc(C(=O)O)c3)n2)CC(C)(C)C)n1, CDMT/NMM, 3.0 h, 2 steps", "result": 10, "unit": "%"}]}
{"smiles": "Cc1cccc(C)c1-c1cc2nc(n1)NS(=O)(=O)c1cccc(c1)C(=O)N(Cc1cc(C(C)(C)C)[nH]n1)[C@H](CC(C)(C)C)CO2", "note": "[Compound 134, (11R)-12-[(5-tert-Butyl-1H-pyrazol-3-yl)methyl]-6-(2,6-dimethylphenyl)-11-(2,2-dimethylpropyl)-2,2-dioxo-9-oxa-2λ^6-thia-3,5,12,19-tetrazatricyclo[12.3.1.14,8]nonadeca-1(18),4(19),5,7,14,16-hexaen-13-one]", "values": [{"measurement": "EC50", "setting": "CFTR; Table 10", "result": "< 1000", "unit": "nM"}, {"measurement": "Emax", "setting": "CFTR; [2]", "result": "> 60", "unit": "%"}, {"measurement": "ring closure, yield after HPLC", "setting": "[1]; from Cc1cccc(C)c1-c1cc(OC[C@@H](CC(C)(C)C)NCc2cc(C(C)(C)C)[nH]n2)nc(NS(=O)(=O)c2cccc(C(=O)O)c2)n1, CDMT/NMM, 3.0 h, 2 steps", "result": 20, "unit": "%"}]}
{"smiles": "Cc1cccc(C)c1-c1cc2nc(n1)NS(=O)(=O)c1cccc(c1)C(=O)N(Cc1cc(C3CC3)no1)[C@H](CC(C)(C)C)CO2", "note": "[Compound 137, (11R)-12-[(3-Cyclopropyl-1,2-oxazol-5-yl)methyl]-6-(2,6-dimethylphenyl)-11-(2,2-dimethylpropyl)-9-oxa-2λ^6-thia-3,5,12,19-tetraazatricyclo[12.3.1.14,8]nonadeca-1(17),4(19),5,7,14(18),15-hexaene-2,2,13-trione]", "values": [{"measurement": "EC50", "setting": "CFTR; Table 11", "result": "< 1000", "unit": "nM"}, {"measurement": "Emax", "setting": "CFTR; [3]", "result": "> 60", "unit": "%"}, {"measurement": "ring closure, yield after HPLC", "setting": "[1]; from Cc1cccc(C)c1-c1cc(OC[C@@H](CC(C)(C)C)NCc2cc(C3CC3)no2)nc(NS(=O)(=O)c2cccc(C(=O)O)c2)n1, HATU/TEA, 15.4 mM, 2.0 h", "result": 44, "unit": "%"}]}
